# Patent publication US6841578B2, “Treatment and prevention of mucositis in cancer patients” (priority 2001, dated 2005)
# How the values were obtained:
# [1] = test system: NF-κB; settings: induction by TNF-α; phosphorylation and nuclear translocation of p65 subunit suppressed; cited from earlier work
# [2] = test system: radiation-induced mucositis; experiment: Hamster model of acute radiation-induced mucositis treated with resveratrol; format: in vivo, Male Golden Syrian hamsters; settings: for percentage of days where hamsters had a mucositis score of three or higher: qd, day -1 to day 20, 40 Gy on day 0, control 46.0%
smiles,measurement,setting,value
"Oc1ccc(/C=C/c2cc(O)cc(O)c2)cc1 [resveratrol, trans-3,4′,5-trihydroxystilbene]",activation of NF-κB,[1],blocked the activation of NF-κB
same,percentage of days where hamsters had a mucositis score of three or higher,"[2]; 1 mM resveratrol, intraperitoneal",21.6%
same,percentage of days where hamsters had a mucositis score of three or higher,"[2]; 5 mM resveratrol, intraperitoneal",31.2%
same,severity of mucositis compared to the control,"[2]; intraperitoneal, 1 mM and 5 mM (FIG. 2)",reduced the severity of mucositis
same,efficacy of 1 mM compared with 5 mM treatment,"[2]; intraperitoneal, 1 mM versus 5 mM",more effective
same,efficacy of topical application on mucositis,"[2]; topical, tid, 1 mM and 5 mM","not statistically significant, indicated a trend of efficacy"
